Experimental data published in the supplement of paper PMC10307832.

Columns and labels:
Test in all cases: relative viability (nuclei count vs DMSO), 5 days (fraction); higher = more cells survive
AZ628 + Phenformin = compound: CC1=C(C=C(C=C1)NC(=O)C2=CC(=CC=C2)C(C)(C)C#N)NC3=CC4=C(C=C3)N=CN(C4=O)C [AZ628] + N=C(N)NC(=N)NCCc1ccccc1 [Phenformin] (partner 250 µM)
Procedure, shortened: (§1)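 Each reported value is a median over duplicate plates. It expresses relative viability: treated-well nuclei count divided by vehicle-well nuclei count. Lung cancer cell lines in 1536-well plates were dosed by pin tool a day after seeding, alone with one drug or with a fixed anchor-drug dose plus five library-drug doses (not always all listed) in √10 steps, and nuclei were counted after 5 days.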

AZ628 + AZD7762 = compound: CC1=C(C=C(C=C1)NC(=O)C2=CC(=CC=C2)C(C)(C)C#N)NC3=CC4=C(C=C3)N=CN(C4=O)C [AZ628] + NC(=O)Nc1cc(-c2cccc(F)c2)sc1C(=O)N[C@H]1CCCNC1 [AZD7762] (partner 0.2 µM)
Procedure, shortened: as §1

AZ628 + Tozasertib = compound: CC1=C(C=C(C=C1)NC(=O)C2=CC(=CC=C2)C(C)(C)C#N)NC3=CC4=C(C=C3)N=CN(C4=O)C [AZ628] + Cc1cc(Nc2cc(N3CCN(C)CC3)nc(Sc3ccc(NC(=O)C4CC4)cc3)n2)n[nH]1 [Tozasertib] (partner 0.1 µM)
Procedure, shortened: as §1

QS11 + Luminespib = compound: C1CC2=C(C1)C=C(C=C2)OC3=NC(=C4C(=N3)N(C=N4)CC5=CC=C(C=C5)C6=CC=CC=C6)N[C@@H](CC7=CC=CC=C7)CO [QS11] + CCNC(=O)c1noc(-c2cc(C(C)C)c(O)cc2O)c1-c1ccc(CN2CCOCC2)cc1 [Luminespib] (partner 0.01 µM)
Procedure, shortened: as §1

Row | Cell Line | relative viability (AZ628 + Phenformin; first compound 0.08 µM) | relative viability (AZ628 + Phenformin; first compound 0.253 µM) | relative viability (AZ628 + Phenformin; first compound 0.8 µM) | relative viability (AZ628 + Phenformin; first compound 2.53 µM) | relative viability (AZ628 + Phenformin; first compound 8 µM) | relative viability (AZ628 + AZD7762; first compound 0.08 µM) | relative viability (AZ628 + AZD7762; first compound 0.253 µM) | relative viability (AZ628 + AZD7762; first compound 0.8 µM) | relative viability (AZ628 + AZD7762; first compound 2.53 µM) | relative viability (AZ628 + AZD7762; first compound 8 µM) | relative viability (AZ628 + Tozasertib; first compound 0.08 µM) | relative viability (AZ628 + Tozasertib; first compound 0.253 µM) | relative viability (AZ628 + Tozasertib; first compound 0.8 µM) | relative viability (AZ628 + Tozasertib; first compound 2.53 µM) | relative viability (AZ628 + Tozasertib; first compound 8 µM) | relative viability (QS11 + Luminespib; first compound 0.08 µM) | relative viability (QS11 + Luminespib; first compound 0.253 µM) | relative viability (QS11 + Luminespib; first compound 0.8 µM) | relative viability (QS11 + Luminespib; first compound 2.53 µM) | relative viability (QS11 + Luminespib; first compound 8 µM)
1 | HCC-827 | 0.445 | 0.421 | 0.434 | 0.374 | 0.335 | 0.258 | 0.177 | 0.17 | 0.217 | 0.166 | 0.43 | 0.468 | 0.374 | 0.494 | 0.344 | 0.587 | 0.508 | 0.597 | 0.694 | 0.675
2 | HOP-62 | 0.792 | 0.821 | 0.707 | 0.746 | 0.437 | 0.831 | 0.555 | 0.613 | 0.479 | 0.297 | 0.396 | 0.38 | 0.362 | 0.358 | 0.326 | 0.816 | 1.03 | 0.828 | 0.942 | 0.934
3 | LC-2-ad | 0.606 | 0.562 | 0.556 | 0.49 | 0.532 | 0.909 | 0.85 | 1.02 | 0.922 | 0.759 | 0.445 | 0.427 | 0.548 | 0.392 | 0.354 | 0.851 | 0.981 | 0.857 | 0.956 | 1.17
4 | LCLC-103H | 0.358 | 0.329 | 0.343 | 0.302 | 0.308 | 0.759 | 0.771 | 0.824 | 0.79 | 0.783 | 0.525 | 0.52 | 0.473 | 0.523 | 0.384 | 0.661 | 1.17 | 0.747 | 0.915 | 1.02
5 | LK-2 | 0.508 | 0.312 | 0.557 | 0.304 | 0.172 | 0.526 | 0.354 | 0.273 | 0.357 | 0.259 | 0.166 | 0.167 | 0.17 | 0.173 | 0.165 | 0.164 | 0.229 | 0.178 | 0.172 | 0.146
6 | LOU-NH91 | 0.749 | 0.654 | 0.776 | 0.661 | 0.438 | 0.75 | 0.712 | 0.727 | 0.68 | 0.603 | 0.568 | 0.7 | 0.7 | 0.629 | 0.573 | 0.361 | 0.361 | 0.34 | 0.308 | 0.368
7 | LU99A | 0.808 | 0.67 | 0.694 | 0.782 | 0.551 | 0.436 | 0.363 | 0.415 | 0.33 | 0.22 | 0.272 | 0.242 | 0.265 | 0.231 | 0.257 | 0.238 | 0.269 | 0.284 | 0.273 | 0.335
8 | LXF-289 | 0.527 | 0.499 | 0.473 | 0.501 | 0.362 | 1.12 | 1.08 | 0.98 | 1.06 | 0.652 | 0.199 | 0.213 | 0.195 | 0.174 | 0.155 | 0.544 | 0.739 | 0.544 | 0.519 | 0.551
